Assay results: patent US8455023B2, “Composition for inhibiting melanogenesis and use thereof” (Kaohsiung Medical University, priority 2010, dated 2013)
Read-outs that look alike come from different tables or passages of the source.

What was measured:
Format in all cases: cell-based
[1] = test system: Neonatal foreskin primary human epidermal melanocytes (HEMn-MP); assay: Toxicity assay (MTS) in human melanocytes
Experimental: Neonatal foreskin primary human epidermal melanocytes (HEMn-MP) was purchased from Cascade Biologics™, and cultured in 254 medium (Cascade Biologics™) with human melanocyte growth supplement (HMGS, cat. #S-002-5). Cells were maintained at 37° C. humid environment (5% CO2). Neonatal foreskin primary human epidermal melanocytes (HEMn-MP) were cultured in 24-Well plates at seeding density of 10^5 cells/well.
MTS assay (Mosmann T, Rapid colorimetric assay for cellular growth and survival: application to proliferation and cytotoxicity assays J Immunol Methods 1983 16; 65(1-2):55-63) was used for cell toxicity assay. […] The stimulation of MSH to melanin synthesis was used as a reference for comparison of compound (I) and (II). Control group value was set as 100% which obtained from 3 independent experiments.

[2] = test system: Neonatal foreskin primary human epidermal melanocytes (HEMn-MP); assay: Melanin quantitation analysis in HEMn-MP cells; settings: for Cell melanin content (in words): FIG. 2C; for Percentage of cellular melanin concentration (%): control = 100%
Experimental: Lin's method was used to quantify melanin (Lin et al., Constituents from the Formosan apple reduce tyrosinase activity in human epidermal melanocytes 2007 Phytochemistry Volume 68, Issue 8, Pages 1189-1199). Cells were resuspend in 1N NaOH and dimethyl sulfoxide (DSMO), heated at 80° C. for 1 hour, centrifuged for 10 min at 10,000 rpm, and measured OD 405 nm value of supernatant. As shown in Table 3 and FIG. 2C, the control group value was set as 100%. All results obtained from 3 independent experiments.

tyrosinase = molecular target: T1, tyrosinase (Homo sapiens, UniProt P14679); assay: Tyrosinase activity assay (dopachrome biosynthesis rate, lysate of treated HEMn-MP cells); settings: for Tyrosinase activity percentage (%): 3 days, control = 100%; for Tyrosinase activity (in words): FIG. 2B
T1 construct: endogenous in cells; host or cells: HEMn-MP human epidermal melanocytes (lysate in 1% Triton X-100/PBS)
T1 sequence (P14679 19-529): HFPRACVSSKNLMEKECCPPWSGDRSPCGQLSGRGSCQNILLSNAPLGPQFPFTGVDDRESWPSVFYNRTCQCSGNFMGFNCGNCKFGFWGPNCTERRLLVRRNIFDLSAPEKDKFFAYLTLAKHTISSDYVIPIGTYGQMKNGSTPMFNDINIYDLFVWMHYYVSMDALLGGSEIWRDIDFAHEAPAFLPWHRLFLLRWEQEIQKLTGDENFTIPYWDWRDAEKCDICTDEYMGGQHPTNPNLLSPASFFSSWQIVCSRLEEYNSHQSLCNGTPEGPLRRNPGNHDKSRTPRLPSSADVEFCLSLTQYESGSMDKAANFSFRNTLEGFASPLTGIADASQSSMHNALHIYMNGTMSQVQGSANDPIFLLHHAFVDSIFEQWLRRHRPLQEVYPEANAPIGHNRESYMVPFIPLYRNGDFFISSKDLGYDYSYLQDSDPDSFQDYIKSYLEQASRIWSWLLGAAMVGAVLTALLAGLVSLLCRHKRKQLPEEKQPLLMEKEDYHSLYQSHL
Experimental: Cultured cells were rinsed with […] resuspend in 1% Triton X-100/PBS. Cell lysate was harvested. L-Dopa and L-tyrosine 10 μl (10 mM in 0.1M PBS, pH 6.8) were added and incubated at 37° C. for 3 hours. After reaction, the OD 490 nm value was measured.

[3] = test system: Neonatal foreskin primary human epidermal melanocytes (HEMn-MP); assay: Microscopic appearance of HEMn-MP cells (FIG. 3); settings: high concentrations; 200× bright field; FIGS. 3E and 3J
Source text: Microscopic images were taken under 200× magnification bright field view. The arrow head indicates bipolar appearance of neonatal foreskin primary human epidermal melanocyte (HEMn-MP).
Under 200× bright field microscope, the control group and low concentration compound (I) and (II) treated cells (FIGS. 3A, 3H, 3I, 3M and 3N) were lined up tightly showing bipolar appearance.

[4] = reference, concentration 100 μM

## O=c1cc(CO)occ1O [Kojic acid, reference compound]
[1]
  Cell activity (in words): less effects on cell activity
[1]; human, 100 μM
  Cell activity percentage (%): 72.87%
[2]
  Cell melanin content (in words): reduced melanin content
[2]; [4]
  Percentage of cellular melanin concentration (%): 66.34%

## C=C1OC(=O)/C(=C\CCCCCCCCCCCCC)[C@H]1O [Linderanolide B, linderanolide B]
[1]
  Cell activity (in words): reduced along with higher concentrations
[1]; human, 0.01 μM
  Cell activity percentage (%): 94.19%
[1]; human, 0.1 μM
  Cell activity percentage (%): 87.52%
[1]; human, 1 μM
  Cell activity percentage (%): 83%
[1]; human, 5 μM
  Cell activity percentage (%): 62.41%
[1]; human, 10 μM
  Cell activity percentage (%): 54.26%
tyrosinase; 0.01 μM
  Tyrosinase activity percentage (%): 84.15%
tyrosinase; 0.1 μM (MSH concentration)
  Tyrosinase activity percentage (%): 72.96%
tyrosinase; 1 μM
  Tyrosinase activity percentage (%): 45.91%
tyrosinase; 5 μM
  Tyrosinase activity percentage (%): 18.04%
tyrosinase; 10 μM
  Tyrosinase activity percentage (%): 14.59%
tyrosinase
  Tyrosinase activity (in words): reduced along with elevated concentrations
[2]; 0.01 μM
  Percentage of cellular melanin concentration (%): 89.63%
[2]; 0.1 μM (MSH concentration)
  Percentage of cellular melanin concentration (%): 78.63%
[2]; 1 μM
  Percentage of cellular melanin concentration (%): 67.56%
[2]; 5 μM
  Percentage of cellular melanin concentration (%): 28.93%
[2]; 10 μM
  Percentage of cellular melanin concentration (%): 24.39%
[2]
  Cell melanin content (in words): cell melanin content decreased
[3]
  Cell appearance under microscope: partial toxicity to cells

## NC(=S)Nc1ccccc1 [N-phenylthiourea, reference compound]
[1]; 100 μM, MTS, control = 100%
  Cell activity percentage (%): 79.07%
[1]; FIG. 2A
  Cell activity (in words): less effects on cell activity
tyrosinase
  Tyrosinase activity (in words): less effective to tyrosinase activity
tyrosinase; [4]
  Tyrosinase activity percentage (%): 71.07%
[2]
  Cell melanin content (in words): reduced melanin content
[2]; [4]
  Percentage of cellular melanin concentration (%): 77.56%

## CCCCCCCCCCCCC/C=C1\C(=O)O[C@@](C)(OC)[C@@H]1O [Subamolide A, subamolide A]
[1]
  Cell activity (in words): reduced along with higher concentrations
[1]; human, 0.01 μM
  Cell activity percentage (%): 93.41%
[1]; human, 0.1 μM
  Cell activity percentage (%): 85.66%
[1]; human, 1 μM
  Cell activity percentage (%): 73.91%
[1]; human, 5 μM
  Cell activity percentage (%): 54.69%
[1]; human, 10 μM
  Cell activity percentage (%): 44.91%
tyrosinase; 0.01 μM
  Tyrosinase activity percentage (%): 78.62%
tyrosinase; 0.1 μM (MSH concentration)
  Tyrosinase activity percentage (%): 74.21%
tyrosinase; 1 μM
  Tyrosinase activity percentage (%): 44.03%
tyrosinase; 5 μM
  Tyrosinase activity percentage (%): 7.369%
tyrosinase; 10 μM
  Tyrosinase activity percentage (%): 7.275%
tyrosinase
  Tyrosinase activity (in words): reduced along with elevated concentrations
[2]; 0.01 μM
  Percentage of cellular melanin concentration (%): 84.11%
[2]; 0.1 μM (MSH concentration)
  Percentage of cellular melanin concentration (%): 76.85%
[2]; 1 μM
  Percentage of cellular melanin concentration (%): 66.1%
[2]; 5 μM
  Percentage of cellular melanin concentration (%): 25.12%
[2]; 10 μM
  Percentage of cellular melanin concentration (%): 20.2439%
[2]
  Cell melanin content (in words): cell melanin content decreased
[3]
  Cell appearance under microscope: partial toxicity to cells
